Results: US8080529B2, “Macrolides with anti-inflammatory activity” (Glaxo Group Limited, priority 2005, dated 2011)
Read-outs that look alike come from different tables or passages of the source.

Columns and labels:
[1] = tested on: TNF-α; test: Inhibition of TNF-α production by stimulated human peripheral blood leukocytes in vitro; format: cell-based; details: Homo sapiens, Leukocyte, read-out: Percentage of inhibition of TNF-α production
Method in brief: (§1)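 Cytokines in supernatants measured by sandwich ELISA after overnight stimulation (2 μg/mL LPS, 1 μg/mL PMA or 120 μg/mL zymosan) of healthy-donor leukocytes pretreated 2 h with 10 or 50 μM compound. Percent inhibition calculated relative to stimulated cells lacking compound.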

[2] = tested on: IL-1α; test: Inhibition of IL-1 production by stimulated human peripheral blood leukocytes in vitro; format: cell-based; details: Homo sapiens, Leukocyte, read-out: Percentage of inhibition of IL-1α production
[3] = tested on: IL-6; test: Inhibition of IL-6 production by stimulated human peripheral blood leukocytes in vitro; format: cell-based; details: Homo sapiens, Leukocyte, read-out: Percentage of inhibition of IL-6 production
Method in brief: as §1

[4] = tested on: IL-8; test: Inhibition of IL-8 production by stimulated human peripheral blood leukocytes in vitro; format: cell-based; details: Homo sapiens, Leukocyte, read-out: Percentage of inhibition of IL-8 production
Method in brief: as §1

[5] = tested on: human peripheral blood mononuclear cells (PBMC); test: Effects on human T-cell proliferation in vitro (3H-thymidine incorporation); format: cell-based; details: Homo sapiens, PBMC, read-out: Percentage of inhibition of proliferation of stimulated PBMC
Method in brief: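 Proliferation of human peripheral blood mononuclear cells (PBMC) was assessed in the presence of test compounds. During the final 18 h of culture each well received 1 μCi of ^3H-thymidine. Cells were then collected onto a 96-well filter with a multiple cell harvester, and ^3H-thymidine incorporation was counted on a TopCount NXT to give percentage inhibition of proliferation.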

[6] = tested on: Hep G2; test: Cytotoxicity assay (MTT), Hep G2 cell line; format: cell-based; details: 24 h
Method in brief: (§2)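 Hep G2 and A549 cells were cultured 24 h at 37° C in RPM medium with test compounds at 50 μM and 12.5 μM. MTT was added for 0.5-2 h and formazan read at 490 nm. Growth value calculated as OD490 treated/OD490 nontreated ×100.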

[7] = tested on: A549; test: Cytotoxicity assay (MTT), A549 cell line; format: cell-based; details: 24 h
Method in brief: as §2

[8] = tested on: TNF-α; test: Lipopolysaccharide induced TNF-α production in Balb/cJ mice; format: in vivo; details: Mus musculus, ip, 1.5 h; 10 mg/kg intraperitoneally, 30 min before LPS; 90 min after LPS; read-out: % inhibition of TNF-α production (plasma)
Experimental: Male Balb/cJ mice (Iffa Credo, France) weighing 25-33 g were randomly grouped (n=7 in test group, 7 in positive control group, 4 in negative control group). Test compounds, as well as vehicle [0.125% carboxymethyl-cellulose (Sigma, USA)], were administered to the mice intraperitoneally. Test compounds were administered at a dose of 10 mg/kg of body weight, in a volume of 10 mL/kg of body weight. Thirty minutes later, a sterile solution of lipopolysaccharide (LPS) (Sigma, USA) in saline was intraperitoneally administered at a concentration and volume of 25 μg/0.2 mL/mouse to each animal, except those in negative control. Ninety minutes following administration, all animals were sacrificed by puncturing a. carotis communis. The plasma concentration of TNF-α was determined by sandwich ELISA, using capture and detection antibodies (R&D, USA) according to manufacturer's recommendations. Results are presented in the following table as percent of inhibition of TNF-α production in comparison to the positive control (stimulated, but untreated animals).

## CC[C@H]1OC(=O)[C@H](C)[C@@H](O[C@H]2C[C@@](C)(OC)[C@@H](OC(=O)CCN(CC)CC)[C@H](C)O2)[C@H](C)[C@@H](O[C@@H]2O[C@H](C)C[C@H](N(C)C)[C@H]2O)[C@](C)(O)C[C@@H](C)CN(C)[C@H](C)[C@H]2OC(=O)O[C@@]21C [Example 1, 11,12-Carbonate-11,12-dideoxy-4″-O-(3-diethylamino-propionyl)-azithromycin]
[1]; LPS-stimulated PBL
  inhibition at 10 µM: 54%
  inhibition at 50 µM: 100%
[1]; PMA-stimulated PBL
  inhibition at 10 µM: 0%
  inhibition at 50 µM: 94%
[1]; zymosan-stimulated PBL
  inhibition at 10 µM: 88%
  inhibition at 50 µM: 100%
[2]; LPS-stimulated PBL
  inhibition at 10 µM: 67%
  inhibition at 50 µM: 93%
[2]; PMA-stimulated PBL
  inhibition at 10 µM: 0%
  inhibition at 50 µM: 84%
[2]; zymosan-stimulated PBL
  inhibition at 10 µM: 73%
  inhibition at 50 µM: 83%
[3]; LPS-stimulated PBL
  inhibition at 10 µM: 10%
  inhibition at 50 µM: 94%
[3]; PMA-stimulated PBL
  inhibition at 10 µM: 0%
  inhibition at 50 µM: 96%
[3]; zymosan-stimulated PBL
  inhibition at 10 µM: 29%
  inhibition at 50 µM: 100%
[4]; LPS-stimulated PBL
  inhibition at 10 µM: 0%
  inhibition at 50 µM: 97%
[4]; PMA-stimulated PBL
  inhibition at 10 µM: 0%
  inhibition at 50 µM: 100%
[4]; zymosan-stimulated PBL
  inhibition at 10 µM: 29%
  inhibition at 50 µM: 100%
[5]; PHA
  inhibition at 10 µM: 95%
  inhibition at 50 µM: 99%
[5]; PMA + iono.
  inhibition at 10 µM: 90%
  inhibition at 50 µM: 96%
[6]; 12.5 μM
  Percentage of inhibition of cell growth: 0%
[6]; 50 μM
  Percentage of inhibition of cell growth: 15%
[7]; 12.5 μM
  Percentage of inhibition of cell growth: 0%
[7]; 50 μM
  Percentage of inhibition of cell growth: 3%
[8]
  inhibition in vivo at 10 mg/kg: 64%
